Data: patent US8163702B2, “Treatment of melanoma” (SciClone Pharmaceuticals, Inc., priority 2006, dated 2012)

System: murine B16 melanoma
Experiment: Antitumor effect in murine B16 melanoma model, tumor size and tumor weight (Example 2)
Format: in vivo, C57BL/6 mice
Conditions: Day 12
Experimental: As per aseptic tissue culture procedures, one vial of B16 melanoma cells (supplied by Cell Culture Center of CAMS) was thawed and centrifuged at 1000 rpm, 20-25° C. for 5 minutes. The cell pellets were suspended in 0.1-0.5 mL normal saline (NS) and subcutaneously injected into the right axilla of each mouse (approximately 1×10^6 cells/mouse). When the tumor diameter was 1 cm approximately (measured by vernier caliper), the animals were euthanized with CO2 asphyxiation and the tumor was excised. Tumor cells were suspended in normal saline as previously described and the cell adaptation cycle was repeated once.
On Day 0, 1×10^6 B16 cells in a volume of 0.1 mL normal saline were subcutaneously injected into the right axillary area of the mouse. The day of tumor inoculation was defined as Day 0.
Dosing was initiated on Day 1.
Observations were recorded daily for mortality and moribundity. […] The tumors were excised, separated, and weighed.
Tumor volume was calculated using the following formula: Tumor Volume=Length×Width×Width/2 Tumor volume inhibition rate (IR) was calculated according to the formula: IR(TV)=(TVvehicle−TVdrug treated)/TVvehicle×100% TV is the tumor volume on the day of measurement.
The antitumor effect of the test article was also evaluated by tumor weight. The tumor weight of each mouse was recorded after euthanasia, and the inhibition rate of tumor weight was calculated according to the formula: IR(TW)=(Tumor weightvehicle−Tumor weightdrug treated)/Tumor weightvehicle×100%

N[C@H](CCC(=O)N[C@@H](Cc1c[nH]c2ccccc12)C(=O)O)C(=O)O [SCV-07, γ-D-glutamyl-L-tryptophan]
0.17 cm^3: Tumor volumes (mouse F3, SCV-07 5.0 mg/kg sc) | Tumor volumes (mouse M1, SCV-07 5.0 mg/kg sc)
0.3 cm: Tumor measurements L (mouse F5, SCV-07 0.1 mg/kg sc) | Tumor measurements W (mouse F5, SCV-07 0.1 mg/kg sc)
0.67 cm^3: Tumor volumes (mouse F4, SCV-07 0.1 mg/kg sc) | Tumor volumes (mouse M1, SCV-07 0.01 mg/kg sc) | Tumor volumes (mouse M1, SCV-07 0.1 mg/kg sc)
0.7 cm: Tumor measurements L (mouse F3, SCV-07 5.0 mg/kg sc) | Tumor measurements W (mouse F3, SCV-07 5.0 mg/kg sc) | Tumor measurements W (mouse M1, SCV-07 1.0 mg/kg sc) | Tumor measurements L (mouse M1, SCV-07 5.0 mg/kg sc) | Tumor measurements W (mouse M1, SCV-07 5.0 mg/kg sc)
5E−04 cm^3: Tumor volumes (mouse F3, SCV-07 0.01 mg/kg sc)
0.8 cm: Tumor measurements L (mouse F4, SCV-07 5.0 mg/kg sc) | Tumor measurements W (mouse F4, SCV-07 5.0 mg/kg sc) | Tumor measurements L (mouse M1, SCV-07 1.0 mg/kg sc)
0.55 cm^3: Tumor volumes (mouse F3, SCV-07 0.1 mg/kg sc)
0.45 cm^3: Tumor volumes (mouse M3, SCV-07 0.01 mg/kg sc)
0.01 cm^3: Tumor volumes (mouse F5, SCV-07 0.1 mg/kg sc)
0.26 cm^3: Tumor volumes (mouse F4, SCV-07 5.0 mg/kg sc)
0.9 cm: Tumor measurements W (mouse F5, SCV-07 0.01 mg/kg sc) | Tumor measurements L (mouse M2, SCV-07 0.01 mg/kg sc) | Tumor measurements W (mouse M2, SCV-07 0.01 mg/kg sc) | Tumor measurements L (mouse M2, SCV-07 0.1 mg/kg sc) | Tumor measurements W (mouse M2, SCV-07 0.1 mg/kg sc) | Tumor measurements L (mouse M2, SCV-07 5.0 mg/kg sc) | Tumor measurements W (mouse M2, SCV-07 5.0 mg/kg sc) | Tumor measurements W (mouse M3, SCV-07 0.01 mg/kg sc)
1.1 cm: Tumor measurements L (mouse F3, SCV-07 0.1 mg/kg sc) | Tumor measurements L (mouse F4, SCV-07 0.1 mg/kg sc) | Tumor measurements W (mouse F4, SCV-07 0.1 mg/kg sc) | Tumor measurements L (mouse M1, SCV-07 0.01 mg/kg sc) | Tumor measurements W (mouse M1, SCV-07 0.01 mg/kg sc) | Tumor measurements L (mouse M1, SCV-07 0.1 mg/kg sc) | Tumor measurements W (mouse M1, SCV-07 0.1 mg/kg sc) | Tumor measurements L (mouse M3, SCV-07 0.01 mg/kg sc) | Tumor measurements L (mouse M3, SCV-07 0.1 mg/kg sc) | Tumor measurements W (mouse M3, SCV-07 0.1 mg/kg sc)
0.50 cm^3: Tumor volumes (mouse F2, SCV-07 5.0 mg/kg sc) | Tumor volumes (mouse F3, SCV-07 1.0 mg/kg sc) | Tumor volumes (mouse F4, SCV-07 0.01 mg/kg sc) | Tumor volumes (mouse F5, SCV-07 1.0 mg/kg sc) | Tumor volumes (mouse F5, SCV-07 5.0 mg/kg sc) | Tumor volumes (mouse M2, SCV-07 1.0 mg/kg sc)
0.00 cm^3: Tumor volumes (mouse F4, SCV-07 1.0 mg/kg sc)
0.41 cm^3: Tumor volumes (mouse F5, SCV-07 0.01 mg/kg sc)
0.36 cm^3: Tumor volumes (mouse M2, SCV-07 0.01 mg/kg sc) | Tumor volumes (mouse M2, SCV-07 0.1 mg/kg sc) | Tumor volumes (mouse M2, SCV-07 5.0 mg/kg sc)
0.1 cm: Tumor measurements L (mouse F3, SCV-07 0.01 mg/kg sc) | Tumor measurements W (mouse F3, SCV-07 0.01 mg/kg sc) | Tumor measurements L (mouse F4, SCV-07 1.0 mg/kg sc) | Tumor measurements W (mouse F4, SCV-07 1.0 mg/kg sc)
0.20 cm^3: Tumor volumes (mouse M1, SCV-07 1.0 mg/kg sc)
1.0 cm: Tumor measurements L (mouse F2, SCV-07 5.0 mg/kg sc) | Tumor measurements W (mouse F2, SCV-07 5.0 mg/kg sc) | Tumor measurements W (mouse F3, SCV-07 0.1 mg/kg sc) | Tumor measurements L (mouse F3, SCV-07 1.0 mg/kg sc) | Tumor measurements W (mouse F3, SCV-07 1.0 mg/kg sc) | Tumor measurements L (mouse F4, SCV-07 0.01 mg/kg sc) | Tumor measurements W (mouse F4, SCV-07 0.01 mg/kg sc) | Tumor measurements L (mouse F5, SCV-07 0.01 mg/kg sc) | Tumor measurements L (mouse F5, SCV-07 1.0 mg/kg sc) | Tumor measurements W (mouse F5, SCV-07 1.0 mg/kg sc) | Tumor measurements L (mouse F5, SCV-07 5.0 mg/kg sc) | Tumor measurements W (mouse F5, SCV-07 5.0 mg/kg sc) | Tumor measurements L (mouse M2, SCV-07 1.0 mg/kg sc) | Tumor measurements W (mouse M2, SCV-07 1.0 mg/kg sc)
